Tests used:
[1] = Change in pH of urine after citrate salt or sodium bicarbonate in a person with acidic urine (Example 1)
Method: A citrate salt was administered to a person with acidic urine in accordance with the following dosage regimen, and a change in pH value of urine was then measured over time.
(1) A potassium citrate•sodium citrate hydrate 500 mg tablet (Uralyt Tablet (manufactured by Nippon Chemiphar Co., Ltd.)) is administered at 6 tablets (3 g) once a day after a meal.

[2] = tested on: stage IVB ovarian cancer; conditions: from July 2018, bicarbonate continued, before endoxan
[3] = 3 g once a day, compared to potassium citrate•sodium citrate hydrate

O=C([O-])O.[Na+] [sodium salt of hydrogencarbonate ions, sodium bicarbonate]
side effect observed ([1]; 3 g once a day after a meal): the patient often burped
rate of alkalization of urine [1, 3]: higher
rate of urine turning acidic again [1, 3]: higher
time during which the urine was kept alkaline [1, 3]: shorter
pH of urine / ability to keep the urine alkaline ([1]; person with acidic urine, 6 tablets (3 g) orally once a day after a meal): poorer ability to keep the urine alkaline
value of CA125 [2]: 199

From US11246847B2, “Anticancer drug effect enhancer” (Delta-Fly Pharma, Inc., priority 2019, dated 2022)
